Patent US20230285260A1, “USE OF SACCHARIDES FOR CRYOPROTECTION AND RELATED TECHNOLOGY” (Zeltiq Aesthetics, Inc., priority 2017, published 2023)

Tested on: subject's skin
Test: pre-cooling skin treatment followed by cooling (freeze) treatment at subject's flank, compared to a control site
Format: in vivo, human
Conditions: general statement of the inventors' finding
Description: A mixture of trehalose, water, and […] (PG) was tested as a pre-cooling skin treatment. The mixture was formed by combining 100 grams of trehalose, 100 mL of water, and 40 mL of PG. The trehalose was expected to provide cryoprotection, while the water and PG were expected to act as penetration-enhancing excipients. A first site at a subject's right flank was given the pre-cooling skin treatment, while an opposite second site at the subject's left flank was designated as a control. The pre-cooling treatment at the first site included placing a small piece of rayon fabric soaked in […] of the mixture directly onto the subject's skin and waiting for 12 minutes. It was expected that passive diffusion of trehalose into the subject's skin occurred to some extent during this period. Next, an ultrasound cavitation device (40 kHz) was moved top-to-bottom and bottom-to-top over the subject's skin at the first site for 3 minutes. During this period, 5 mL of the mixture was poured over the subject's skin at the first site.
After the pre-cooling skin treatment at the first site, an applicator having a rectangular plate-type heat-transfer surface with an area of 1.7 square inches was used to execute a cooling treatment at the first and second sites. […]

SMILES: OC[C@H]1O[C@H](O[C@H]2O[C@H](CO)[C@@H](O)[C@H](O)[C@H]2O)[C@H](O)[C@@H](O)[C@@H]1O [trehalose]
- reducing cryoinjury to skin cells: effective
